In patent US8822464B2, “N-aryl-piperazine derivatives and their use as positive allosteric modulators of mGluR5 receptors” (Boehringer Ingelheim International GmbH, priority 2011, dated 2014):

Target: T1, human recombinant mGluR5 (Homo sapiens, UniProt P41594)
T1 construct: expressed in transfected cells; host or cells: HEK 293 cell line; cultured with tetracycline, hygromycin and geneticin; tetracycline withdrawn 3-7 days before the assay
Assay: positive modulation of mGluR5, calcium based FLIPR assay in HEK 293 cells
Details: HEK 293 cell line expressing human recombinant mGluR5; peak height of Ca release fluorescence signal after glutamate at approximately 5% basal stimulation; nonlinear regression
Description: The positive modulation of mGluR5 is measured in a HEK 293 cell line expressing human recombinant mGluR5 and is detected with calcium based FLIPR assay. The cells are cultured with DMEM supplemented with 10% FCS, 2 μg/mL tetracycline, 100 μg/mL hygromycin and 500 μg/mL gneticin. The cell culture media is exchanged for tetracycline-free cell culture media 3-7 days before the assay. One day before the assay the cell culture medium is exchanged to DMEM without glutamine and phenol red and supplemented with 10% FCS, 100 μg/mL hygromycin and 500 μg/mL geneticin. On the assay day, the medium of the subconfluent cultures is removed and the cells are detached by addition of 2.5 ml EDTA(0.02%) per 175 cm2 culture flask for 1 minute. The cells are resuspend in Ringer solution (140 mM NaCl, 5 mM KCl, 2.5 mM CaCl2, 1.5 mM MgCl2, 5 mM Glucose, 10 mM Hepes; adjusted to pH 7.4 with NaOH), pooled and Ringer solution added to adjust the volume to 50 mL. The cell suspension is centrifuged for 5 min at 1500 U/min (425 g). The supernatant is removed and the cells washed a second time with 50 ml fresh Ringer solution and centrifuged again as before. The supernatant is again removed and the pellet resuspended in Ringer solution to 1,000,000 cells/ml (1×10^6 cells/mL). The cells are plated onto BD BioCoat Poly-D-Lysine 384 well plates (20.000 cells/well; 20 μl/well). The lid covered plates are then incubated until use at 37° C./10% CO2. For dye loading, 20 μl of Calcium-4 assay kit solution (prepared according to the manufacturer's description in Ringer solution) are added to the cells and the plates are incubated for 80 min 37° C. and then 10 min at room temperature.
Controls, Compound Dilution and Assay Execution:
Each assay plate contained wells with “high” and “low” controls:
Low controls 1% DMSO/ringer solution+basal glutamate activation (defined as 100% CTL).
High controls 10 μM CDPPB+basal glutamate activation (defined as 200% CTL).
Test compounds are dissolved and diluted in DMSO to 100-fold the desired concentrations. In a second step, the compounds are diluted in Ringer solution such that the compounds are 4-fold more concentrated than the desired final assay concentration. The final DMSO concentration was 1%.
20 μl of each compound solution are then transferred to the assay plate and the Ca2+ kinetic is measured to determine any intrinsic compound activity. After 5 min incubation in the FLIPR device, the second stimulation with 20 μl of glutamate in Ringer solution (glutamate concentration adjusted to approximately 5% basal stimulation of the maximal possible glutamate effect) is added and the kinetic Ca2+ response of the wells was measured for the modulation effect.
The peak height of the Ca release related fluorescence signal (9-66) is used for the EC50. The EC50 of the modulation is calculated over a nonlinear regression with GraphPad Prism (Table 1).

T1 sequence (P41594 21-1212): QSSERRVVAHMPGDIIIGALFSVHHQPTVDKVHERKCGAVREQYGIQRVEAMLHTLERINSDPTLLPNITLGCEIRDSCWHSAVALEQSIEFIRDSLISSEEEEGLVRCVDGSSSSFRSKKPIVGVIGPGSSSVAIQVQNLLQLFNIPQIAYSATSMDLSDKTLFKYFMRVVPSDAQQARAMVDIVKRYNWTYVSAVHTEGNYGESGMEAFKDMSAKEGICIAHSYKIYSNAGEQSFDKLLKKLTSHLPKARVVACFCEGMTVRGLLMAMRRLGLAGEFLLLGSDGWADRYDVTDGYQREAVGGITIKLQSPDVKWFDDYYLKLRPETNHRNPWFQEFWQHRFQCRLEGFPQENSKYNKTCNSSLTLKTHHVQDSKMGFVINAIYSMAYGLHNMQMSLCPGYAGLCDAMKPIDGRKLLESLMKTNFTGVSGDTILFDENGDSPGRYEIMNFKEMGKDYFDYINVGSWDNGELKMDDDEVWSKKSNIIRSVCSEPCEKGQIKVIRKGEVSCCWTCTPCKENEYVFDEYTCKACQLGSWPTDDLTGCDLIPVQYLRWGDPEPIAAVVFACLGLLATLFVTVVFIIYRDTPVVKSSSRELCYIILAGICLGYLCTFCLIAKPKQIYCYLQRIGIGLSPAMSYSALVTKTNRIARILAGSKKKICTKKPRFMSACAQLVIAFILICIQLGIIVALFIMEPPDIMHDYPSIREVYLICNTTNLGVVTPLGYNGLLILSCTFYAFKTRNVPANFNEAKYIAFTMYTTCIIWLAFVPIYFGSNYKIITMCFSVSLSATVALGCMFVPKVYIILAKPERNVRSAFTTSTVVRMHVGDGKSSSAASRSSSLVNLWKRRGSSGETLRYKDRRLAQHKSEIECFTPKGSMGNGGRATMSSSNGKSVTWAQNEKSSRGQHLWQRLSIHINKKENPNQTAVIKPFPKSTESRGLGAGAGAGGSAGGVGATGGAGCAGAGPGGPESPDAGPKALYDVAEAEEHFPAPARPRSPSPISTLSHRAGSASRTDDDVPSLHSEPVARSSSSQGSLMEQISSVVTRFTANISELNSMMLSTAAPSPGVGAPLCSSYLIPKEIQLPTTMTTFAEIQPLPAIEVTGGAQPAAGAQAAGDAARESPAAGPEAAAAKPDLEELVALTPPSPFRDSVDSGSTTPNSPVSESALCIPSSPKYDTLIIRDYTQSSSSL

CCCc1cc(-c2ccc(F)c(C)c2)nn1CC(=O)N1CCN(c2ncccn2)CC1 [Example 7.01.81]
EC50: 13 nM

Cc1cnc(-c2cc(-c3ccccc3)nn2CC(=O)N2CCN(c3ncccn3)CC2)cc1C [Example 7.01.134]
EC50: 865 nM

Cc1cc(-c2cc(CC(C)C)n(CC(=O)N3CCN(c4ncccn4)CC3)n2)ccc1F [Example 7.01.118]
EC50: 18 nM

COc1cc(N2CCN(C(=O)Cn3nc(-c4ccc(F)cn4)cc3-c3ccccc3)CC2)ncn1 [Example 7.01.61]
EC50: 246 nM

CCc1cc(-c2ccc(F)c(C)c2)nn1CC(=O)N1CCN(c2cccc(OC)c2)CC1 [Example 7.01.145]
EC50: 216 nM

COc1ccnc(N2CCN(C(=O)Cn3nc(-c4ccc(OC)c(C)c4)cc3C(C)C)CC2)c1 [Example 7.01.55]
EC50: 501 nM

COCCCc1cc(-c2ccc(F)c(C)c2)nn1CC(=O)N1CCN(c2cc(OC)ccn2)CC1 [Example 7.01.109]
EC50: 140 nM

COc1cc(N2CCN(C(=O)Cn3nc(-c4ccc(C)c(F)c4)cc3-c3ccccc3)CC2)ncn1 [Example 7.01.190]
EC50: 47 nM

COCc1cc(-c2ccc(F)c(C)c2)nn1CC(=O)N1CCN(c2ncnc3[nH]cnc23)CC1 [Example 7.02.20]
EC50: 183 nM

COc1ccnc(N2CCN(C(=O)Cn3nc(-c4ccc(F)c(C)c4)cc3C)CC2)c1 [Example 7.02.22]
EC50: 85 nM

CCOc1ccccc1N1CCN(C(=O)Cn2nc(-c3ccccc3)cc2-c2ccccc2)CC1 [Example 7.01.11]
EC50: 1420 nM

O=C(Cn1nc(-c2ccccc2)cc1-c1ccc(F)cn1)N1CCN(c2ncccn2)CC1 [Example 7.01.66]
EC50: 957 nM

COc1cc(N2CCN(C(=O)Cn3nc(-c4ccc(F)cc4)cc3-c3ccc(F)cc3)CC2)ncn1 [Example 7.01.14]
EC50: 22 nM

Cc1cnc(-c2cc(-c3ccccc3)n(CC(=O)N3CCN(c4ncccn4)CC3)n2)cc1C [Example 7.01.135]
EC50: 21 nM

Cc1nc(-c2cc(-c3ccccc3)n(CC(=O)N3CCN(c4ncccn4)CC3)n2)ccc1F [Example 7.01.154]
EC50: 11 nM

Cc1cc(-c2cc(-c3ccccc3)n(CC(=O)N3CCN(c4cc(OCCN5CCOCC5)ncn4)CC3)n2)ccc1F [Example 7.05.01, 2-[3-(4-fluoro-3-methyl-phenyl)-5-phenyl-pyrazol-1-yl]-1-{4-[6-(2-morpholin-4-yl-ethoxy)-pyrimidin-4-yl]-piperazin-1-yl}-ethanone]
EC50: 40 nM

Cc1cc(-c2cc(C3CC3)n(CC(=O)N3CCN(c4ccccn4)CC3)n2)ccc1F [Example 7.01.41]
EC50: 234 nM

CCc1cc(-c2ccc(F)cc2)nn1CC(=O)N1CCN(c2ccccn2)CC1 [Example 7.01.73]
EC50: 419 nM

CCc1cc(-c2ccc(C)c(F)c2)nn1CC(=O)N1CCN(c2cc(OC)ncn2)CC1 [Example 7.01.183]
EC50: 318 nM

COc1ccc(-c2cc(C(C)C)n(CC(=O)N3CCN(c4cccnn4)CC3)n2)cc1 [Example 7.01.22]
EC50: 701 nM

CCc1cc(-c2cc(C)c(F)c(C)c2)nn1CC(=O)N1CCN(c2ccccn2)CC1 [Example 7.01.139]
EC50: 595 nM

COc1ccc(-c2cc(C(C)C)n(CC(=O)N3CCN(c4cc(OC)ncn4)CC3)n2)cc1 [Example 7.01.23]
EC50: 221 nM

CCc1cc(-c2cc(C)c(F)c(C)c2)nn1CC(=O)N1CCN(c2ncc(F)cn2)CC1 [Example 7.01.142]
EC50: 704 nM

CCCc1cc(-c2ccc(F)c(C)c2)nn1CC(=O)N1CCN(c2cc(OC)ccn2)CC1 [Example 7.01.80]
EC50: 45 nM

COCCCc1cc(-c2ccc(F)c(C)c2)nn1CC(=O)N1CCN(c2cc(OC)ncn2)CC1 [Example 7.01.110]
EC50: 137 nM

Cc1ccc(-c2cc(-c3ccccc3)n(CC(=O)N3CCN(c4ccccn4)CC3)n2)cc1C [Example 7.01.102]
EC50: 20 nM

CCc1cc(-c2ccc(F)cc2)nn1CC(=O)N1CCN(c2ncc(F)cn2)CC1 [Example 7.01.78]
EC50: 723 nM

O=C(Cn1nc(-c2ccc(F)cc2)cc1-c1ccc(F)cc1)N1CCN(c2ccccn2)CC1 [Example 7.01.15]
EC50: 30 nM

CCc1cc(-c2cccc(C#N)c2)nn1CC(=O)N1CCN(c2ccccn2)CC1 [Example 7.01.161]
EC50: 297 nM

Cc1ccc(-c2cc(-c3ccccc3)n(CC(=O)N3CCN(c4ncccn4)CC3)n2)nc1 [Example 7.01.111]
EC50: 24 nM

COc1ccnc(N2CCN(C(=O)Cn3nc(-c4ccc(F)cc4)cc3C(C)C)CC2)c1 [Example 7.01.85]
EC50: 371 nM

CCCc1cc(-c2ccc(F)c(C)c2)nn1CC(=O)N1CCN(c2cc(OC)ncn2)CC1 [Example 7.01.79]
EC50: 26 nM

COc1cnc(N2CCN(C(=O)Cn3nc(-c4ccc(F)c(C)c4)cc3C(C)C)CC2)nc1 [Example 7.01.32]
EC50: 75 nM

O=C(Cn1nc(-c2ccccc2)cc1-c1ccccc1)N1CCN(c2cc3ccccc3cn2)CC1 [Example 7.02.07]
EC50: 853 nM

CCCc1cc(-c2ccc(F)c(C)n2)nn1CC(=O)N1CCN(c2cc(OC)ncn2)CC1 [Example 7.01.187]
EC50: 360 nM

O=C(Cn1nc(-c2ccc(F)cn2)cc1-c1ccccc1)N1CCN(c2ccccn2)CC1 [Example 7.01.58]
EC50: 211 nM

COc1cc(N2CCN(C(=O)Cn3nc(-c4ccc(C)cn4)cc3-c3ccccc3)CC2)ncn1 [Example 7.01.120]
EC50: 20 nM

Cc1cc(-c2cc(CC(C)C)n(CC(=O)N3CCN(c4ncc(F)cn4)CC3)n2)ccc1F [Example 7.01.122]
EC50: 51 nM

Cc1cc(-c2cc(-c3ccccc3)n(CC(=O)N3CCN(c4cccnn4)CC3)n2)ccc1F [Example 7.01.02]
EC50: 9 nM

COc1cnc(N2CCN(C(=O)Cn3nc(-c4cccc(C#N)c4)cc3-c3ccccc3)CC2)nc1 [Example 7.01.169]
EC50: 11 nM

O=C(Cn1nc(-c2ccccc2)cc1-c1ccccc1)N1CCN(c2cc(C(F)(F)F)ccn2)CC1 [Example 7.02.13]
EC50: 696 nM

O=C(Cn1nc(-c2ccccc2)cc1-c1ccccc1)N1CCN(c2ccc(Cl)nn2)CC1 [Example 7.01.12]
EC50: 216 nM

COc1cccc(-c2cc(C3CCCCC3)n(CC(=O)N3CCN(c4ncccn4)CC3)n2)c1 [Example 7.01.17]
EC50: 117 nM

Cc1cc(-c2cc(C)n(CC(=O)N3CCN(c4ccccn4)CC3)n2)ccc1F [Example 7.02.21]
EC50: 77 nM

COc1cc(-c2cc(-c3ccccc3)n(CC(=O)N3CCN(c4ncccn4)CC3)n2)ccc1F [Example 7.01.150]
EC50: 5 nM

Cc1ccc(-c2cc(-c3ccccc3)nn2CC(=O)N2CCN(c3ncccn3)CC2)nc1C [Example 7.01.133]
EC50: 652 nM

O=C(Cn1nc(-c2ccccc2)cc1-c1ccccc1)N1CCN(c2ncccn2)CC1 [Example 7.02.01, 2-(3,5-diphenyl-pyrazol-1-yl)-1-(4-(2-pyrimidinyl)-1-piperazinyl)-ethanon]
EC50: 35 nM

O=C(Cn1nc(-c2ccc(OC(F)F)cc2)cc1-c1ccccc1)N1CCN(c2ncccn2)CC1 [Example 7.01.174]
EC50: 3 nM

CCc1cccc(-c2cc(CC)n(CC(=O)N3CCN(c4ncc(OC)cn4)CC3)n2)c1 [Example 7.01.132]
EC50: 138 nM

O=C(Cn1nc(-c2ccc(C(F)F)cc2)cc1-c1ccccc1)N1CCN(c2ncccn2)CC1 [Example 7.01.191]
EC50: 7 nM

Cc1cc(-c2cc(-c3ccccc3)n(CC(=O)N3CCN(c4ncccn4)CC3)n2)ccc1F [Example 7.01.01, 2-(3-(4-Fluoro-3-methyl-phenyl)-5-phenyl-pyrazol-1-yl)-1-(4-(2-pyrimidinyl)-1-piperazinyl)-ethanon]
EC50: 6 nM

COc1ccnc(N2CCN(C(=O)Cn3nc(-c4ccc(C)cn4)cc3-c3ccccc3)CC2)c1 [Example 7.01.119]
EC50: 19 nM

Cc1cccc(-c2cc(-c3ccccc3)n(CC(=O)N3CCN(c4ccccn4)CC3)n2)c1 [Example 7.01.166]
EC50: 8 nM

CCc1cc(-c2cccc(C)c2)nn1CC(=O)N1CCN(c2cc(OC)ncn2)CC1 [Example 7.01.97]
EC50: 181 nM

COc1ccc(-c2cc(C(C)C)n(CC(=O)N3CCN(c4ncccn4)CC3)n2)cc1 [Example 7.01.19]
EC50: 86 nM

COc1cc(N2CCN(C(=O)Cn3nc(-c4ccc(F)c(C)c4)cc3C3CCCCC3)CC2)ncn1 [Example 7.01.36]
EC50: 308 nM
